The conditions of data set [1]: mouse, in vivo.

Residues, ends and D or L forms follow the SMILES beside them.

As to `CCCCCCCCCCCCCCCC(=O)N[C@H](C(=O)N[C@H](C(=O)N[C@H](C(=O)N[C@@H](C)C(=O)N[C@@H](C)C(=O)N[C@@H](C)C(=O)N[C@@H](CCCCN)C(=O)N[C@@H](CCCCN)C(=O)N[C@@H](CCCCN)C(=O)NCC(=O)NCC(=O)NCC(=O)NCC(=O)N[C@@H](CO)C(=O)N[C@@H](CC(C)C)C(=O)N[C@@H](CC(C)C)C(=O)N[C@H](C(=O)N[C@@H](CCC(=O)O)C(=O)N[C@H](C(=O)N[C@@H](CCC(=O)O)C(=O)N[C@H](C(=O)N1CCC[C@H]1C(=O)N[C@H](C(=O)N[C@@H](CCCNC(=N)N)C(=O)N[C@@H](CC(N)=O)C(=O)N[C@@H](CCC(=O)O)C(=O)N[C@@H](Cc1c[nH]c2ccccc12)C(=O)NCC(=O)N[C@@H](CO)C(=O)N[C@@H](CCCNC(=N)N)C(=O)N[C@@H](CO)C(=O)N[C@@H](CC(N)=O)C(=O)NCC(=O)N[C@@H](CO)C(=O)N[C@@H](CO)C(=O)N[C@@H](CC(=O)O)C(=O)O)[C@@H](C)CC)[C@@H](C)O)C(C)C)[C@@H](C)O)C(C)C)C(C)C)C(C)C` [PA–M2e] (HELM PEPTIDE1{[CCCCCCCCCCCCCCCC(=O)[*:2]].V.V.V.A.A.A.K.K.K.G.G.G.G.S.L.L.T.E.V.E.T.P.I.R.N.E.W.G.S.R.S.N.G.S.S.D}$$$$V2.0), in the data set on DC2.4 cells, the “cell viability (metabolic activity, resazurin reduction)” value is recorded as “did not significantly decrease cell viability” and the “live–dead cell assay by confocal microscopy” value is listed as “confirmed the biocompatibility”. Also, in data set [1], the “weight loss upon immunization” value was “none of the mice experienced weight loss”.

The values are drawn from article PMC11960782 (Nanoscale Advances, 2025).
